Experimental data taken from patent publication US11078198B2 (BRISTOL-MYERS SQUIBB COMPANY, priority 2017, dated 2021).

Target: T1, human FXR (Homo sapiens, UniProt Q96RI1)
T1 construct: expressed in transfected cells; host or cells: HEK293 cells stably carrying a 5xGal4-response-element firefly luciferase reporter, transiently transfected with pcDNA3.1-Gal4-FXR
T1 sequence (Q96RI1 262-486 limits assumed): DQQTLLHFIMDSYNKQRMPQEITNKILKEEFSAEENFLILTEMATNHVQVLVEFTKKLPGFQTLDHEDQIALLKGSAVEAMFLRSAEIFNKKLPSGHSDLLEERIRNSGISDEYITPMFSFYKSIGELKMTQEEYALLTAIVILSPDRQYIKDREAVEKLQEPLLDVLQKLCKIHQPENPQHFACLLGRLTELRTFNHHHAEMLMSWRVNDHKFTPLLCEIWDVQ
Assay: transient human FXR/Gal4-luciferase reporter assay
Assay type: cell-based
Conditions: Gal4-hFXR transfected HEK293 reporter cells; relative to 8 μM GW-4064
Experimental: A Gal4-hFXR fusion construct reporter system was used as the primary assay to characterize compound activity. A construct including 5 copies of the Gal4 promoter response element upstream of a firefly luciferase reporter cDNA was stably expressed in HEK293 cells. This reporter cell line was maintained in Dulbecco's Modified Eagle's medium (DMEM; Gibco) supplemented with 1% penicillin-streptomycin (P/S) solution, 500 μg/mL Zeocin and 10% charcoal/dextran-treated fetal bovine serum (cs-FBS) at 37° C. in a humidified 5% CO2 atmosphere. Another plasmid was constructed in which the human cytomegalovirus promoter in the pcDNA3.1 vector directs the expression of the cDNA encoding a fusion protein comprised of the DNA binding domain from the Gal4 transcription factor fused to the ligand binding domain from human FXR.
The day prior to transfection, the reporter cells in culture are detached from the plate with trypsin and plated into a T75 flask at a sufficient density to achieve approximately 90% confluence the next morning. The transfection reagents are prepared by separately diluting 25 μg of the pcDNA3.1-Gal4-FXR plasmid into 1.87 mL of Opti-MEM (Thermo-Fisher), and 40 μL of Lipofectamine 2000 (Thermo-Fisher) into 1.87 mL of Opti-MEM, and then adding the diluted DNA solution into the diluted Lipofectamine 2000 solution and incubating at room temperature for 15-20 minutes. The mixture is further diluted with 10 mL of a solution comprised of DMEM, 10% cs-FBS, and 1% P/S immediately prior to transferring to the cells. The maintenance culture media is aspirated from the cells and the final transfection mixture is added before the cells are incubated overnight at 37° C. in a humidified 5% CO2 atmosphere. This protocol can be scaled up, and the transiently transfected cells can be cryopreserved in an assay-ready format.
For compound testing, 100 nL of the compounds (serial dilutions in DMSO) are dispensed with an Echo acoustic dispenser (Labcyte) into the wells of a Corning/Costar clear bottom 384-well white plate. The transfected cells are harvested, counted, and diluted such that 10-25,000 cells in 25 μL are plated into each well of the 384-well compound assay plate. The compound-treated cells are incubated overnight at 37° C. in a humidified 5% CO2 atmosphere.

SMILES | EC50
O=C(O)c1ccc(N2CCC3(C=C(c4c(-c5ccccc5C(F)(F)F)noc4C4CC4)C3)CC2)nc1 [Example 30, 6-(2-(5-Cyclopropyl-3-(2-(trifluoromethyl)phenyl)isoxazol-4-yl)-7-azaspiro[3.5]non-1-en-7-yl) nicotinic acid] | 110 nM
O=C(O)CNC(=O)c1ccc(N2CCC3(C=C(c4c(-c5ccccc5C(F)(F)F)noc4C4CC4)C3)CC2)nc1 [Example 31, (6-(2-(5-Cyclopropyl-3-(2-(trifluoromethyl)phenyl)isoxazol-4-yl)-7-azaspiro[3.5]non-1-en-7-yl)nicotinoyl)glycine] | 5300 nM
O=C(O)CNC(=O)c1cc(F)c2nc(N3CCC4(C=C(c5c(-c6ccccc6C(F)(F)F)noc5C5CC5)C4)CC3)sc2c1 [Example 32, (2-(2-(5-Cyclopropyl-3-(2-(trifluoromethyl)phenyl)isoxazol-4-yl)-7-azaspiro[3.5]non-1-en-7-yl)-4-fluorobenzo[d]thiazole-6-carbonyl)glycine] | 1500 nM
O=C(O)c1cc(F)c2nc(N3CCC4(CC3)CC(O)(c3c(-c5c(Cl)cccc5Cl)noc3C3CC3)C4)sc2c1 [Example 33, 2-(2-(5-Cyclopropyl-3-(2,6-dichlorophenyl)isoxazol-4-yl)-2-hydroxy-7-azaspiro[3.5]nonan-7-yl)-4-fluorobenzo[d]thiazole-6-carboxylic acid] | 4800 nM
O=C(O)c1cc(F)c2nc(N3CC4(C=C(c5c(-c6ccccc6C(F)(F)F)noc5C5CC5)C4)C3)sc2c1 [Example 34, 2-(6-(5-cyclopropyl-3-(2-(trifluoromethyl)phenyl)isoxazol-4-yl)-2-azaspiro[3.3]hept-5-en-2-yl)-4-fluorobenzo[d]thiazole-6-carboxylic acid] | 400 nM
O=C(O)c1ccc(N2CC3(C=C(c4c(-c5ccccc5C(F)(F)F)noc4C4CC4)C3)C2)nc1 [Example 35, 6-(6-(5-cyclopropyl-3-(2-(trifluoromethyl)phenyl)isoxazol-4-yl)-2-azaspiro[3.3]hept-5-en-2-yl)nicotinic acid] | 4300 nM
O=C(O)c1cc(F)c2nc(N3CCC4(CC3)CC(c3c(-c5ccccc5C(F)(F)F)noc3C3CC3)C4)sc2c1 [Example 36, 2-(2-(5-cyclopropyl-3-(2-(trifluoromethyl)phenyl)isoxazol-4-yl)-7-azaspiro[3.5]nonan-7-yl)-4-fluorobenzo[d]thiazole-6-carboxylic acid] | 116 nM
O=C(O)c1ccc(N2CCC3(CC2)CC(c2c(-c4ccccc4C(F)(F)F)noc2C2CC2)C3)nc1 [Example 37] | 1400 nM
CCOC(=O)c1cc(F)c2nc(N3[C@@H]4CC[C@H]3C[C@@]3(COC(c5c(-c6c(Cl)cccc6Cl)noc5C5CC5)O3)C4)sc2c1 (stereo partly drawn) [Example 40, Ethyl 2-((1R,3S,5S)-2′-(5-cyclopropyl-3-(2,6-dichlorophenyl)isoxazol-4-yl)-8-azaspiro[bicyclo[3.2.1]octane-3,4′-[1,3]dioxolan]-8-yl)-4-fluorobenzo[d]thiazole-6-carboxylate] | 3400 nM
O=C(O)c1cc(F)c2nc(N3[C@@H]4CC[C@H]3CC3(COC(c5c(-c6c(Cl)cccc6Cl)noc5C5CC5)O3)C4)sc2c1 (stereo partly drawn) [Example 41, 2-((1R,5S)-2′-(5-cyclopropyl-3-(2,6-dichlorophenyl)isoxazol-4-yl)-8-azaspiro[bicyclo[3.2.1]octane-3,4′-[1,3]dioxolan]-8-yl)-4-fluorobenzo[d]thiazole-6-carboxylic acid] | 1700 nM
O=C(O)c1cc(F)c2nc(N3CCC4(CC3)COC(c3c(-c5ccccc5OC(F)(F)F)noc3C3CC3)O4)sc2c1 (stereo not drawn) [Example 42, 2-(2-(5-cyclopropyl-3-(2-(trifluoromethoxy)phenyl)isoxazol-4-yl)-1,3-dioxa-8-azaspiro[4.5]decan-8-yl)-4-fluorobenzo[d]thiazole-6-carboxylic acid] | 1000 nM
O=C(O)c1ccc(N2CCC3(CC2)COC(c2c(-c4ccccc4OC(F)(F)F)noc2C2CC2)O3)nc1 (stereo not drawn) [Example 43, 6-(2-(5-Cyclopropyl-3-(2-(trifluoromethoxy)phenyl)isoxazol-4-yl)-1,3-dioxa-8-azaspiro[4.5]decan-8-yl)nicotinic acid] | 5300 nM
O=C(O)c1cccc(N2CCC3(CC2)COC(c2c(-c4ccccc4OC(F)(F)F)noc2C2CC2)O3)n1 (stereo not drawn) [Example 44, 6-(2-(5-cyclopropyl-3-(2-(trifluoromethoxy)phenyl)isoxazol-4-yl)-1,3-dioxa-8-azaspiro[4.5]decan-8-yl)picolinic acid] | 5000 nM
Cc1cc(C(=O)O)cc2sc(N3CCC4(C=C(c5c(-c6c(Cl)cccc6Cl)noc5C5CC5)C4)CC3)nc12 [Example 45, 2-(2-(5-Cyclopropyl-3-(2,6-dichlorophenyl)isoxazol-4-yl)-7-azaspiro[3.5]non-1-en-7-yl)-4-methylbenzo[d]thiazole-6-carboxylic acid] | 11 nM
O=C(O)c1cc(F)c2nc(N3CCC4(C=C(c5c(-c6ncccc6Cl)noc5C5CC5)C4)CC3)sc2c1 [Example 46, 2-(2-(3-(3-Chloropyridin-2-yl)-5-cyclopropylisoxazol-4-yl)-7-azaspiro[3.5]non-1-en-7-yl)-4-fluorobenzo[d]thiazole-6-carboxylic acid] | 200 nM

Results, then the molecule that gave them:

EC50 | SMILES
115 nM | O=C(O)c1cc(F)c2nc(N3CCC4(C=C(c5c(-c6c(Cl)cc(F)cc6Cl)noc5C5CC5)C4)CC3)sc2c1 [Example 48, 2-(2-(5-Cyclopropyl-3-(2,6-dichloro-4-fluorophenyl)isoxazol-4-yl)-7-azaspiro[3.5]non-1-en-7-yl)-4-fluorobenzo[d]thiazole-6-carboxylic acid]
57 nM | CC(C)c1onc(-c2c(Cl)cccc2Cl)c1C1=CC2(CCN(c3nc4c(F)cc(C(=O)O)cc4s3)CC2)C1 [Example 49, 2-(2-(3-(2,6-Dichlorophenyl)-5-isopropylisoxazol-4-yl)-7-azaspiro[3.5]non-1-en-7-yl)-4-fluorobenzo[d]thiazole-6-carboxylic acid]
11 nM | O=C(O)c1cc(OC(F)(F)F)c2nc(N3CCC4(C=C(c5c(-c6c(Cl)cncc6Cl)noc5C5CC5)C4)CC3)sc2c1 [Example 50, 2-(2-(5-Cyclopropyl-3-(3,5-dichloropyridin-4-yl)isoxazol-4-yl)-7-azaspiro[3.5]non-1-en-7-yl)-4-(trifluoromethoxy)benzo[d]thiazole-6-carboxylic acid]
72 nM | COc1cc2nc(N3CCC4(C=C(c5c(-c6c(Cl)cncc6Cl)noc5C5CC5)C4)CC3)sc2cc1C(=O)O [Example 51, 2-(2-(5-Cyclopropyl-3-(3,5-dichloropyridin-4-yl)isoxazol-4-yl)-7-azaspiro[3.5]non-1-en-7-yl)-5-methoxybenzo[d]thiazole-6-carboxylic acid]
58 nM | CC(C)c1onc(-c2c(Cl)cncc2Cl)c1C1=CC2(CCN(c3nc4c(F)cc(C(=O)O)cc4s3)CC2)C1 [Example 52, 2-(2-(3-(3,5-Dichloropyridin-4-yl)-5-isopropylisoxazol-4-yl)-7-azaspiro[3.5]non-1-en-7-yl)-4-fluorobenzo[d]thiazole-6-carboxylic acid]
46 nM | O=C(O)c1cc2ccc(N3CCC4(C=C(c5c(-c6c(Cl)cccc6Cl)noc5C5CC5)C4)CC3)cc2nn1 [Example 53, 7-(2-(5-Cyclopropyl-3-(2,6-dichlorophenyl)isoxazol-4-yl)-7-azaspiro[3.5]non-1-en-7-yl)cinnoline-3-carboxylic acid]
177 nM | O=C(O)c1cc2ccc(N3CCC4(C=C(c5c(-c6ccccc6C(F)(F)F)noc5C5CC5)C4)CC3)cc2nn1 [Example 54, 7-(2-(5-Cyclopropyl-3-(2-(trifluoromethyl)phenyl)isoxazol-4-yl)-7-azaspiro[3.5]non-1-en-7-yl)cinnoline-3-carboxylic acid]
191 nM | O=C(O)c1cc2ccc(N3CCC4(C=C(c5c(-c6c(Cl)cncc6Cl)noc5C5CC5)C4)CC3)cc2nn1 [Example 55, 7-(2-(5-Cyclopropyl-3-(3,5-dichloropyridin-4-yl)isoxazol-4-yl)-7-azaspiro[3.5]non-1-en-7-yl)cinnoline-3-carboxylic acid]
194 nM | O=C(O)c1cc2ccc(N3CCC4(C=C(c5c(-c6c(F)cccc6Cl)noc5C5CC5)C4)CC3)cc2nn1 [Example 56, 7-(2-(3-(2-Chloro-6-fluorophenyl)-5-cyclopropylisoxazol-4-yl)-7-azaspiro[3.5]non-1-en-7-yl)cinnoline-3-carboxylic acid]
